Results as given in ChEMBL document CHEMBL4043229, “gem-Dithioacetylated indole derivatives as novel antileishmanial agents” (Bioorg Med Chem Lett, 2017).
Converted amounts (≈) assume the structure as drawn. The source made the active and inactive calls. The calls are words filed in the database; no cut-off is given here.

Test system: Leishmania donovani
Test: Anti-leishmanial activity against intracellular amastigote stage of Leishmania donovani harboring luciferase gene infected in mouse J774A1 cells at 12.5 ug/ml after 72 hrs by luminescence assay relative to control
Assay type: functional
Details: not given

SMILES | inhibition
N#Cc1ccc(OCCCCCn2cc(C=O)c3ccccc32)cc1 | inactive

Same assay, conditions: J774.A1, 72 h

SMILES | inhibition at 12.5 µg/mL [%]
CC(=O)SC(SC(C)=O)c1cn(CCCCOc2ccc(C#N)cc2)c2ccccc12 | 97.8
CC(=O)SC(SC(C)=O)c1cn(CCCCCOc2ccc(C#N)cc2)c2ccccc12 | 99.8
CC(=O)SC(SC(C)=O)c1cn(CCCCCCOc2ccc(C#N)cc2)c2ccccc12 | 40.2
CC(=O)SC(SC(C)=O)c1cn(CCCCCN2CCN(c3ccccc3)CC2)c2ccccc12 | 86.8

Test system: Leishmania donovani
Test: Anti-leishmanial activity against promastigote stage of Leishmania donovani MHOM/IN/Dd8 harboring luciferase gene at 12.5 ug/ml after 72 hrs by luminescence assay relative to control
Assay type: functional
Details: not given

SMILES | inhibition
N#Cc1ccc(OCCCCCn2cc(C=O)c3ccccc32)cc1 | inactive

Same assay, conditions: MHOM/IN/Dd8, 72 h

SMILES | inhibition at 12.5 µg/mL [%]
CCCCn1cc(C(SC(C)=O)SC(C)=O)c2ccccc21 | 74
CC(=O)SC(SC(C)=O)c1cn(CCCCOc2ccc(C#N)cc2)c2ccccc12 | 90.9
CC(=O)SC(SC(C)=O)c1cn(C)c2ccccc12 | 31
CC(=O)SC(SC(C)=O)c1cn(CCCCCOc2ccc(C#N)cc2)c2ccccc12 | 96
CC(=O)SC(SC(C)=O)c1cn(CCCCCCOc2ccc(C#N)cc2)c2ccccc12 | 91.6
CC(=O)SC(SC(C)=O)c1cn(CCCCCN2CCN(c3ccccc3)CC2)c2ccccc12 | 60.1

Test system: not listed separately
Test: Cytotoxicity against mouse J774A1 cells after 72 hrs by MTT assay
Assay type: cell-based, J774.A1
Details: not given

SMILES | CC50 at 72 h [µg/mL]
CC(=O)SC(SC(C)=O)c1cn(CCCCOc2ccc(C#N)cc2)c2ccccc12 | > 100
CC(=O)SC(SC(C)=O)c1cn(CCCCCOc2ccc(C#N)cc2)c2ccccc12 | > 100
CC(=O)SC(SC(C)=O)c1cn(CCCCCCOc2ccc(C#N)cc2)c2ccccc12 | > 100
CC(=O)SC(SC(C)=O)c1cn(CCCCCN2CCN(c3ccccc3)CC2)c2ccccc12 | 13.8 (≈ 27.1 µM)
